Earlier results as cited in patent publication US20220096389A1, “PHARMACEUTICAL COMPOSITIONS OF AMORPHOUS SOLID DISPERSIONS AND METHODS OF PREPARATION THEREOF” (Shenzhen Pharmacin Co., Ltd., priority 2020, published 2022).

Conditions: cited from earlier work; for Measured or Calculated pKas (first value): first value in cell; for Measured or Calculated pKas (second value): second value in cell

In the case of `CC1(C)S[C@@H]2[C@H](NC(=O)[C@H](N)c3ccc(O)cc3)C(=O)N2[C@H]1C(=O)O` [Amoxicillin], the “Measured or Calculated pKas (first value)” value is listed as 3.39 and the “Measured or Calculated pKas (second value)” value is listed as 6.71.
For `CC[C@H]1OC(=O)[C@H](C)[C@@H](O[C@H]2C[C@@](C)(OC)[C@@H](O)[C@H](C)O2)[C@H](C)[C@@H](O[C@@H]2O[C@H](C)C[C@H](N(C)C)[C@H]2O)[C@](C)(O)C[C@@H](C)CN(C)[C@H](C)[C@@H](O)[C@]1(C)O` [Azithromycin], the “Measured or Calculated pKas (first value)” value is listed as 7.34.
In the case of `CCC(C(=O)O)c1ccc(CC(C)C)cc1` (centres unmarked) [Butibufen], the “Measured or Calculated pKas (first value)” value is given as 4.64.
For `CC(C(=O)O)c1ccc2c(c1)[nH]c1ccc(Cl)cc12` (centres unmarked) [Carprofen], the “Measured or Calculated pKas (first value)” value is listed as 4.63.
In the case of `CN(C)[C@@H]1C(O)=C(C(N)=O)C(=O)[C@@]2(O)C(O)=C3C(=O)c4c(O)ccc(Cl)c4[C@@](C)(O)[C@H]3C[C@@H]12` [Chlortetracycline], the “Measured or Calculated pKas (first value)” value is listed as 3.33 ± 0.30 and the “Measured or Calculated pKas (second value)” value is listed as 7.55 ± 0.02.
For `CC[C@H]1OC(=O)[C@H](C)[C@@H](O[C@H]2C[C@@](C)(OC)[C@@H](O)[C@H](C)O2)[C@H](C)[C@@H](O[C@@H]2O[C@H](C)C[C@H](N(C)C)[C@H]2O)[C@](C)(OC)C[C@@H](C)C(=O)[C@H](C)[C@@H](O)[C@]1(C)O` [Clarithromycin], the “Measured or Calculated pKas (first value)” value is given as 7.25.
In the case of `CN1C[C@@H]2C[C@H]1CN2c1cc2c(cc1F)c(=O)c(C(=O)O)cn2C1CC1` [Danofloxacin], the “Measured or Calculated pKas (first value)” value is listed as 6.07 ± 0.06 and the “Measured or Calculated pKas (second value)” value is listed as 8.56 ± 0.07.
In the case of `CN(C)[C@@H]1C(O)=C(C(N)=O)C(=O)[C@@]2(O)C(O)=C3C(=O)c4c(O)ccc(Cl)c4[C@@H](O)[C@H]3C[C@@H]12` [Demeclocycline], the “Measured or Calculated pKas (first value)” value is listed as 3.37 ± 0.30 and the “Measured or Calculated pKas (second value)” value is listed as 7.36 ± 0.03.
In the case of `O=C(O)Cc1ccccc1Nc1c(Cl)cccc1Cl` [Diclofenac], the “Measured or Calculated pKas (first value)” value is listed as 4.16.
For `CN1CCN(c2cc3c(cc2F)c(=O)c(C(=O)O)cn3-c2ccc(F)cc2)CC1` [Difloxacin], the “Measured or Calculated pKas (first value)” value is listed as 5.66 ± 0.04 and the “Measured or Calculated pKas (second value)” value is listed as 7.24 ± 0.06.
For `C[C@H]1c2cccc(O)c2C(=O)C2=C(O)[C@]3(O)C(=O)C(C(N)=O)=C(O)[C@@H](N(C)C)[C@@H]3[C@@H](O)[C@@H]21` [Doxycycline], the “Measured or Calculated pKas (first value)” value is listed as 3.02 ± 0.30 and the “Measured or Calculated pKas (second value)” value is listed as 7.97 ± 0.15.
In the case of `CCn1cc(C(=O)O)c(=O)c2cc(F)c(N3CCNCC3)nc21` [Enoxacin], the “Measured or Calculated pKas (first value)” value is given as 5.05 ± 0.08 and the “Measured or Calculated pKas (second value)” value is given as 6.25 ± 0.05.
In the case of `CCN1CCN(c2cc3c(cc2F)c(=O)c(C(=O)O)cn3C2CC2)CC1` [Enrofloxacin], the “Measured or Calculated pKas (first value)” value is given as 5.88 ± 0.03 and the “Measured or Calculated pKas (second value)” value is given as 7.74 ± 0.03.
For `C#Cc1cccc(Nc2ncnc3cc(OCCOC)c(OCCOC)cc23)c1` [Erlotinib], the “Measured or Calculated pKas (first value)” value is listed as 5.4.
For `O=C(O)CCC(=O)c1ccc(-c2ccccc2)cc1` [Fenbufen], the “Measured or Calculated pKas (first value)” value is listed as 4.56.
For `CN1CCN(c2c(F)cc3c(=O)c(C(=O)O)cn(CCF)c3c2F)CC1` [Fleroxacin], the “Measured or Calculated pKas (first value)” value is given as 5.46 and the “Measured or Calculated pKas (second value)” value is given as 8.00.
In the case of `CC(C(=O)O)c1ccc(-c2ccccc2)c(F)c1` (centres unmarked) [Flurbiprofen], the “Measured or Calculated pKas (first value)” value is listed as 4.35.
For `COc1cc2ncnc(Nc3ccc(F)c(Cl)c3)c2cc1OCCCN1CCOCC1` [Gefitinib], the “Measured or Calculated pKas (first value)” value is listed as 7.2.
In the case of `CC(C)Cc1ccc(C(C)C(=O)O)cc1` (centres unmarked) [Ibuprofen], the “Measured or Calculated pKas (first value)” value is given as 4.51.
For `CC(CCc1ccccc1)NCC(O)c1ccc(O)c(C(N)=O)c1` (centres unmarked) [Labetalol], the “Measured or Calculated pKas (first value)” value is listed as 7.35.
